Laboratory results as given in patent US12071453B2, “Neuroactive steroids, compositions, and uses thereof” (Sage Therapeutics, Inc., priority 2013, dated 2024).
pIC50: −log10 of the molar value.

Tests used:
[1] = target: [35S]-TBPS binding in rat brain cortical membranes; experiment: Steroid inhibition of [35S]-TBPS binding, rat brain cortical membranes; details: 3 nM [35S]-TBPS, in the presence of 5 μM GABA, read-out: 35S-TBPS Radioligand Displacement (IC50)
Procedure: TBPS binding assays using rat brain cortical membranes in the presence of 5 μM GABA has been described (Gee et al, J. Pharmacol. Exp. Ther. 1987, 241, 346-353; Hawkinson et al, Mol. Pharmacol. 1994, 46, 977-985; Lewin, A. H et al., Mol. Pharmacol. 1989, 35, 189-194).
Briefly, cortices are rapidly removed following decapitation of carbon dioxide-anesthetized Sprague-Dawley rats (200-250 g). The cortices are homogenized in 10 volumes of ice-cold 0.32 M sucrose using a glass/teflon homogenizer and centrifuged at 1500×g for 10 min at 4° C. The resultant supernatants are centrifuged at 10,000×g for 20 min at 4° C. to obtain the P2 pellets. The P2 pellets are resuspended in 200 mM NaCl/50 mM Na—K phosphate pH 7.4 buffer and centrifuged at 10,000×g for 10 min at 4° C. This washing procedure is repeated twice and the pellets are resuspended in 10 volumes of buffer. Aliquots (100 μL) of the membrane suspensions are incubated with 3 nM [^35S]-TBPS and 5 μL aliquots of test drug dissolved in dimethyl sulfoxide (DMSO) (final 0.5%) in the presence of 5 μM GABA. The incubation is brought to a final volume of 1.0 mL with buffer. Nonspecific binding is determined in the presence of 2 μM unlabeled TBPS and ranged from 15 to 25%. Following a 90 min incubation at room temp, the assays are terminated by filtration through glass fiber filters (Schleicher and Schuell No. 32) using a cell harvester (Brandel) and rinsed three times with ice-cold buffer. Filter bound radioactivity is measured by liquid scintillation spectrometry. Non-linear curve fitting of the overall data for each drug averaged for each concentration is done using Prism (GraphPad). […] The concentration of test compound producing 50% inhibition (IC50) of specific binding and the maximal extent of inhibition (Imax) are determined for the individual experiments with the same model used for the overall data and then the mean±SEM.s of the individual experiments are calculated.
Various compounds are or can be screened to determine their potential as modulators of [^35S]-TBPS binding in vitro. These assays are or can be performed in accordance with the above discussed procedures.

[2] = target: T1, GABAA receptors composed of the α4β3δ subunits (GABRA4/GABRB3/GABRD) (Homo sapiens, UniProt P28472+P48169); experiment: Two Electrode Voltage Clamp (TEVC), GABA receptor potentiation in Xenopus laevis oocytes, α4β3δ; format: cell-based; details: 10 μM compound, 3 μM GABA, read-out: GABA (α4β3δ) % efficacy at 10 μM
T1 construct: expressed in transfected cells; host or cells: Xenopus laevis oocytes, injected (ratio 5:1:5)
T1 sequence (P48169 36-554): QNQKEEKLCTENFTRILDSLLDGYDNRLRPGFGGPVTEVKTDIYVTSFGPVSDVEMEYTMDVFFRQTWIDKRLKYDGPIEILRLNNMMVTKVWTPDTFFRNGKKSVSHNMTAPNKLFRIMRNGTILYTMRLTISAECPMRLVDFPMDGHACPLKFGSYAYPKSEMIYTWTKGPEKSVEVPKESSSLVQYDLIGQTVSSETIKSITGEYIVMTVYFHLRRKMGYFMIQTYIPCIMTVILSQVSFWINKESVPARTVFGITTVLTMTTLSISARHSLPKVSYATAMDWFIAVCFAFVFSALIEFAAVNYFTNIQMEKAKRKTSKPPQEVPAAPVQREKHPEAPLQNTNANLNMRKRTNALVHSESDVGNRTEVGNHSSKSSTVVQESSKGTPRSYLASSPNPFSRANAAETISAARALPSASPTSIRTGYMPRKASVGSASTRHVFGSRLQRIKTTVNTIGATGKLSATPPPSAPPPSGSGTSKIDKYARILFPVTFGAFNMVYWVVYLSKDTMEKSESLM
T1 sequence (P28472 26-473): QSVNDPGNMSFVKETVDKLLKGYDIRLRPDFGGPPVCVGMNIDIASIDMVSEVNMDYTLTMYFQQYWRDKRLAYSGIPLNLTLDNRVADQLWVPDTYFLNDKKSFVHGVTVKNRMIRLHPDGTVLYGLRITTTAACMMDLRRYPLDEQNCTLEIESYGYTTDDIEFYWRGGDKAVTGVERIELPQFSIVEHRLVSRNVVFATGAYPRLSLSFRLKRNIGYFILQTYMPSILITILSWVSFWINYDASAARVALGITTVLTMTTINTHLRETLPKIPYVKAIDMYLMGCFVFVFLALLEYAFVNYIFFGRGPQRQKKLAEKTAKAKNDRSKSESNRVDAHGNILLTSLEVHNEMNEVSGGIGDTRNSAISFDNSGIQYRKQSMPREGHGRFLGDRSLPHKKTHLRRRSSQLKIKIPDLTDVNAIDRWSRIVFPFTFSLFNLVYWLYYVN
T1 sequence (O14764 25-452 partner): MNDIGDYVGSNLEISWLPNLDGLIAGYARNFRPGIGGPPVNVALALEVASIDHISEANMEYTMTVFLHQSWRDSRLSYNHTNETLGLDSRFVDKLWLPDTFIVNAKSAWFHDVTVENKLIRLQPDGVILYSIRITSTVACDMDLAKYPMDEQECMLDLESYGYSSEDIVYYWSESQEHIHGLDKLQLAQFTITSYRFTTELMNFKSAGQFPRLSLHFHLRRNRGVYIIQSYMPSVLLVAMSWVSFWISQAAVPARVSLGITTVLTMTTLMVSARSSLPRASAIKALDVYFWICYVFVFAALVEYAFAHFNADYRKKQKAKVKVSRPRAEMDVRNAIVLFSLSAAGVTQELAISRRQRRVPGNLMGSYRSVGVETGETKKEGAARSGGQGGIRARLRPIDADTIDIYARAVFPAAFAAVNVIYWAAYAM
Procedure: (§1) The Two Electrode Voltage Clamp (TEVC) technique was used to investigate the effects of compounds at a concentration of 10 μM on GABAA receptors composed of the α1β2γ2 or α4β3δ subunits expressed in oocytes from the Xenopus laevis. GABA-evoked currents were recorded from oocytes that expressed the GABA receptors and the modulatory effects of the test items on these currents were investigated.
(§2) Ovaries were harvested from Xenopus laevis females that had been deeply anesthetized by cooling at 4° C. and immersion in Tricaine methanesulfonate (MS-222 at a concentration of 150 mg/L) in sodium bicarbonate (300 mg/L). Once anesthetized the animal was decapitated and pithed following the rules of animal rights from the Geneva canton. A small piece of ovary was isolated for immediate preparation while the remaining part was placed at 4° C. in a sterile Barth solution containing in mM NaCl 88, KCl 1, NaHCO3 2.4, HEPES 10, MgSO4·7H2O 0.82, Ca(NO3)2·4H2O 0.33, CaCl2·6H2O 0.41, at pH 7.4, and supplemented with 20 μg/ml of kanamycin, 100 unit/ml penicillin and 100 μg/ml streptomycin. All recordings were performed at 18° C. and cells were super-fused with medium containing in mM: NaCl 82.5, KCl 2.5, HEPES 5, CaCl2·2H2O, ·6H2O 1, pH 7.4.
(§3) Plasmids containing the RNAs of the human GABRA1/GABRB2/GABRG2 and GABRA4/GABRB3/GABRD genes were injected into oocytes using a proprietary automated injection device (Hogg el al., J. Neurosci. Methods, (2008) 169: 65-75). These genes encode for the α1β2γ2 and α4β3δ GABAA subunits respectively. Receptor expression was assessed using electrophysiology at least two days later. The ratio of RNA injection for α1β2γ2 was 1:1:1 and for α4β3δ was 5:1:5. Electrophysiological recordings were made using an automated process equipped with standard TEVC and data were captured and analyzed using a proprietary data acquisition and analysis software running under Matlab (Mathworks Inc.). The membrane potential of the oocytes was maintained at −80 mV throughout the experiments. To explore the effects of proprietary compounds, currents were evoked by applying 10 μM (α1β2γ2) or 3 μM (α4β3δ) GABA for 30 s. These concentrations approximated the EC50 concentration of GABA at each receptor subtype. Oocytes were then re-exposed to GABA again for 30 s. 15 s after beginning the GABA application, test article was co-applied at a concentration of 10 μM for 15 s. Potentiation of the peak current was assessed. Data was filtered at 10 Hz, captured at 100 Hz and analyzed using proprietary data acquisition and analysis software running under Matlab (Mathworks Inc.). For statistical analysis values were computed either with Excel (Microsoft) or Matlab (mathworks Inc.). To obtain mean measurements with standard deviations, all experiments were carried out using at least three cells.

[3] = target: T2, GABAA receptors composed of the α1β2γ2 subunits (GABRA1/GABRB2/GABRG2) (Homo sapiens, UniProt P14867+P47870); experiment: Two Electrode Voltage Clamp (TEVC), GABA receptor potentiation in Xenopus laevis oocytes, α1β2γ2; format: cell-based; details: 10 μM compound, 10 μM GABA, read-out: GABA (α1β2γ2) % efficacy at 10 μM
T2 construct: expressed in transfected cells; host or cells: Xenopus laevis oocytes, injected (ratio 1:1:1)
T2 sequence (P14867 28-456): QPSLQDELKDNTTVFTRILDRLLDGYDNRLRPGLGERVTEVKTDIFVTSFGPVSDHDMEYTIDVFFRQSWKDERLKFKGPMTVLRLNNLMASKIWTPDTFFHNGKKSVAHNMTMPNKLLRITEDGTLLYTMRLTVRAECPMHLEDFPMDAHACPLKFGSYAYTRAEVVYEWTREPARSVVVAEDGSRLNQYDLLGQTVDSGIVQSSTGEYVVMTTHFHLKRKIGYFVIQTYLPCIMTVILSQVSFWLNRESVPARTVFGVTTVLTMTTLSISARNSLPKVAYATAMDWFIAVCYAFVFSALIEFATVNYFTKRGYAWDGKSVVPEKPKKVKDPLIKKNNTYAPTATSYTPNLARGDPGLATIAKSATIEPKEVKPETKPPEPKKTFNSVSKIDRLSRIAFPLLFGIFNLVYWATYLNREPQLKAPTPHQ
T2 sequence (P47870 26-512): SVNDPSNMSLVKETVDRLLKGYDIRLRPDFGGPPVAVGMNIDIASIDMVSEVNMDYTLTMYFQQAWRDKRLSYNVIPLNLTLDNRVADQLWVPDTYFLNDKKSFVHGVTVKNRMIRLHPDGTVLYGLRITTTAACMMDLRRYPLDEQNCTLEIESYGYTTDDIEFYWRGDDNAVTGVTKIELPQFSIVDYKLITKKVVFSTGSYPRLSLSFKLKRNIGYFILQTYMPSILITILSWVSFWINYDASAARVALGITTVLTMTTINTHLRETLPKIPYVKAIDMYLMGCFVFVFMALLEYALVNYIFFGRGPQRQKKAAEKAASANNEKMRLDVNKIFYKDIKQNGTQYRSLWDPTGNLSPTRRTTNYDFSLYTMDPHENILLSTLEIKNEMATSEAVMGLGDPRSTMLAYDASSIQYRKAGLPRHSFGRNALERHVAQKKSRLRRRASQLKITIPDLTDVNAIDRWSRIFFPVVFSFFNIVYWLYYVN
T2 sequence (P18507 40-475 partner): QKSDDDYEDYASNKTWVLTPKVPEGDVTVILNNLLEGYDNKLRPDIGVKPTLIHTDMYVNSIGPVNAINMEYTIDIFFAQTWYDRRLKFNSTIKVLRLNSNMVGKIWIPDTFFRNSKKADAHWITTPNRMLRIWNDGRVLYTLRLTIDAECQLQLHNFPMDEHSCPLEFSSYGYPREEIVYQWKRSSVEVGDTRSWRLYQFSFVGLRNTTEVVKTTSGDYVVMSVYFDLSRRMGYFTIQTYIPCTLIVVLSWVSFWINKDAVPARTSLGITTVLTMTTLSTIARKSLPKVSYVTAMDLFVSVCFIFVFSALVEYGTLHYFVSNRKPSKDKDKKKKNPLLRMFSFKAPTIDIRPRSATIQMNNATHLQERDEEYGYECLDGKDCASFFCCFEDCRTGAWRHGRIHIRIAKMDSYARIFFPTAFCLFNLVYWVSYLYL
Procedure: as §1, §2, §3

Structure (SMILES)	pIC50 [1]	Emax at 10 µM [2]	Emax at 10 µM [3]
COC[C@]12CC[C@@](C)(O)C[C@@H]1CC[C@H]1[C@@H]3CC[C@H](C(=O)Cn4ccnc4F)[C@@]3(C)CC[C@@H]12 [Compound 21]	6.30 to 7.00	50 to 500%	50 to 500%
COC[C@]12CC[C@@](C)(O)C[C@@H]1CC[C@H]1[C@@H]3CC[C@H](C(=O)Cn4cc(Cl)cn4)[C@@]3(C)CC[C@@H]12 [Compound 18]	–	1000 to 1500%	1000 to 1500%
COC[C@]12CC[C@@](C)(O)C[C@@H]1CC[C@H]1[C@@H]3CC[C@H](C(=O)Cn4nnc5cccc(Cl)c54)[C@@]3(C)CC[C@@H]12 [Compound 59]	7.30 to 8.00	500 to 1000%	500 to 1000%
COC[C@]12CC[C@@](C)(O)C[C@H]1CC[C@H]1[C@@H]3CC[C@H](C(=O)Cn4nc5ccc(F)c(F)c5n4)[C@@]3(C)CC[C@@H]12 [Compound 79]	> 8.00	1000 to 1500%	500 to 1000%
COC[C@]12CC[C@@](C)(O)C[C@@H]1CC[C@H]1[C@@H]3CC[C@H](C(=O)Cn4ncc5cc(Cl)ccc54)[C@@]3(C)CC[C@@H]12 [Compound 105]	< 6.30	1000 to 1500%	50 to 500%
COC[C@]12CC[C@@](C)(O)C[C@H]1CC[C@H]1[C@@H]3CC[C@H](C(=O)Cn4cc(S(C)(=O)=O)cn4)[C@@]3(C)CC[C@@H]12 [Compound 33]	7.30 to 8.00	50 to 500%	50 to 500%
COC[C@]12CC[C@@](C)(O)C[C@@H]1CC[C@H]1[C@@H]3CC[C@H](C(=O)Cn4nc5ccc(OC(F)(F)F)cc5n4)[C@@]3(C)CC[C@@H]12 [Compound 104]	7.00 to 7.30	1000 to 1500%	50 to 500%
CCOC[C@]12CC[C@@](C)(O)C[C@@H]1CC[C@H]1[C@@H]3CC[C@H](C(=O)Cn4nnc5ccc(Cl)cc54)[C@@]3(C)CC[C@@H]12 [Compound 70]	7.00 to 7.30	1000 to 1500%	50 to 500%
COC[C@]12CC[C@@](C)(O)C[C@@H]1CC[C@H]1[C@@H]3CC[C@H](C(=O)Cn4nc5cccc(OC)c5n4)[C@@]3(C)CC[C@@H]12 [Compound 57]	7.00 to 7.30	500 to 1000%	50 to 500%
COC[C@]12CC[C@@](C)(O)C[C@H]1CC[C@H]1[C@@H]3CC[C@H](C(=O)Cn4ccnn4)[C@@]3(C)CC[C@@H]12 [Compound 32]	7.00 to 7.30	1000 to 1500%	50 to 500%
COC[C@]12CC[C@@](C)(O)C[C@@H]1CC[C@H]1[C@@H]3CC[C@H](C(=O)Cn4ncc5nccnc54)[C@@]3(C)CC[C@@H]12 [Compound 102]	6.30 to 7.00	50 to 500%	50 to 500%
COC[C@]12CC[C@@](C)(O)C[C@@H]1CC[C@H]1[C@@H]3CC[C@H](C(=O)Cn4nc5ccc(OC)c(OC)c5n4)[C@@]3(C)CC[C@@H]12 [Compound 64]	7.30 to 8.00	500 to 1000%	1000 to 1500%
COC[C@]12CC[C@@](C)(O)C[C@H]1CC[C@H]1[C@@H]3CC[C@H](C(=O)Cn4nnc(C)n4)[C@@]3(C)CC[C@@H]12 [Compound 29]	6.30 to 7.00	500 to 1000%	50 to 500%
COC[C@]12CC[C@@](C)(O)C[C@H]1CC[C@H]1[C@@H]3CC[C@H](C(=O)Cn4nnc5c(F)cccc54)[C@@]3(C)CC[C@@H]12 [Compound 82]	–	500 to 1000%	500 to 1000%
COC[C@]12CC[C@@](C)(O)C[C@@H]1CC[C@H]1[C@@H]3CC[C@H](C(=O)Cn4ncc5ncc(Br)cc54)[C@@]3(C)CC[C@@H]12 [Compound 67]	7.30 to 8.00	500 to 1000%	50 to 500%
CCOC[C@]12CC[C@@](C)(O)C[C@@H]1CC[C@H]1[C@@H]3CC[C@H](C(=O)Cn4nnnc4C)[C@@]3(C)CC[C@@H]12 [Compound 26]	7.00 to 7.30	1000 to 1500%	500 to 1000%
COC[C@]12CC[C@@](C)(O)C[C@@H]1CC[C@H]1[C@@H]3CC[C@H](C(=O)Cn4cc5cc(Cl)ccc5n4)[C@@]3(C)CC[C@@H]12 [Compound 106]	6.30 to 7.00	1000 to 1500%	50 to 500%
COC[C@]12CC[C@@](C)(O)C[C@@H]1CC[C@H]1[C@@H]3CC[C@H](C(=O)Cn4nnc5ccc(OC)cc54)[C@@]3(C)CC[C@@H]12 [Compound 51]	7.30 to 8.00	1000 to 1500%	500 to 1000%
COC[C@]12CC[C@@](C)(O)C[C@@H]1CC[C@H]1[C@@H]3CC[C@H](C(=O)Cn4ncc5ccncc54)[C@@]3(C)CC[C@@H]12 [Compound 45]	7.00 to 7.30	1000 to 1500%	500 to 1000%
COC[C@]12CC[C@@](C)(O)C[C@@H]1CC[C@H]1[C@@H]3CC[C@H](C(=O)Cn4nnc5cccc(F)c54)[C@@]3(C)CC[C@@H]12 [Compound 47]	7.30 to 8.00	1000 to 1500%	500 to 1000%
COC[C@]12CC[C@@](C)(O)C[C@@H]1CC[C@H]1[C@@H]3CC[C@H](C(=O)Cn4nc5ccc(Cl)c(F)c5n4)[C@@]3(C)CC[C@@H]12 [Compound 109]	7.00 to 7.30	1000 to 1500%	50 to 500%
COC[C@]12CC[C@@](C)(O)C[C@@H]1CC[C@H]1[C@@H]3CC[C@H](C(=O)Cn4ncc5ncc(Cl)cc54)[C@@]3(C)CC[C@@H]12 [Compound 69]	7.30 to 8.00	1000 to 1500%	500 to 1000%
COC[C@]12CC[C@@](C)(O)C[C@@H]1CC[C@H]1[C@@H]3CC[C@H](C(=O)Cn4cc5ccc(Cl)cc5n4)[C@@]3(C)CC[C@@H]12 [Compound 113]	6.30 to 7.00	500 to 1000%	50 to 500%
COC[C@]12CC[C@@](C)(O)C[C@@H]1CC[C@H]1[C@@H]3CC[C@H](C(=O)Cn4nnc5ccc(F)cc54)[C@@]3(C)CC[C@@H]12 [Compound 41]	7.30 to 8.00	–	1000 to 1500%
COC[C@]12CC[C@@](C)(O)C[C@@H]1CC[C@H]1[C@@H]3CC[C@H](C(=O)Cn4ncc5ncccc54)[C@@]3(C)CC[C@@H]12 [Compound 38]	7.00 to 7.30	–	500 to 1000%
